From the supplement of paper PMC10307832

How the values were obtained:
Test in all cases: relative viability (nuclei count vs DMSO), 5 days (fraction); higher = more cells survive
[1] = compound: O=C(C[C@H]1NCCC[C@@H]1O)Cn1cnc2cc(Br)c(Cl)cc2c1=O (racemic) [Halofuginone] + Cc1cc(Nc2cc(N3CCN(C)CC3)nc(Sc3ccc(NC(=O)C4CC4)cc3)n2)n[nH]1 [Tozasertib] (partner 0.1 µM)
In short: (§1)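 Relative viability equals treated-well nuclei counts divided by vehicle-well nuclei counts. Counts came from 4× images of lung cancer cell lines grown in 1536-well plates for 5 days after pin-tool dosing on the day after seeding. Dosing used one drug alone or a fixed anchor-drug dose plus five library-drug doses (not always all listed) in √10 steps, and values are medians of duplicate plates.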

Decitabine + Navitoclax = compound: Nc1ncn([C@H]2C[C@H](O)[C@@H](CO)O2)c(=O)n1 [Decitabine] + CC1(C)CCC(c2ccc(Cl)cc2)=C(CN2CCN(c3ccc(C(=O)NS(=O)(=O)c4ccc(N[C@H](CCN5CCOCC5)CSc5ccccc5)c(S(=O)(=O)C(F)(F)F)c4)cc3)CC2)C1 [Navitoclax] (partner 0.5 µM)
In short: as §1

[2] = compound: O=C(C[C@H]1NCCC[C@@H]1O)Cn1cnc2cc(Br)c(Cl)cc2c1=O (racemic) [Halofuginone] + C[C@@H](Oc1cc(-c2cnn(C3CCNCC3)c2)cnc1N)c1c(Cl)ccc(F)c1Cl [Crizotinib] (partner 1 µM)
In short: as §1

Cediranib + Trametinib = compound: COc1cc2c(Oc3ccc4[nH]c(C)cc4c3F)ncnc2cc1OCCCN1CCCC1 [Cediranib] + CC(=O)Nc1cccc(-n2c(=O)n(C3CC3)c(=O)c3c(Nc4ccc(I)cc4F)n(C)c(=O)c(C)c32)c1 [Trametinib] (partner 0.02 µM)
In short: as §1

Cell Line | relative viability ([1]; first compound 0.001 µM) | relative viability ([1]; first compound 0.003162 µM) | relative viability ([1]; first compound 0.01 µM) | relative viability ([1]; first compound 0.03162 µM) | relative viability ([1]; first compound 0.1 µM) | relative viability (Decitabine + Navitoclax; first compound 0.04 µM) | relative viability (Decitabine + Navitoclax; first compound 0.1265 µM) | relative viability (Decitabine + Navitoclax; first compound 0.4 µM) | relative viability (Decitabine + Navitoclax; first compound 1.265 µM) | relative viability (Decitabine + Navitoclax; first compound 4 µM) | relative viability ([2]; first compound 0.001 µM) | relative viability ([2]; first compound 0.003162 µM) | relative viability ([2]; first compound 0.01 µM) | relative viability ([2]; first compound 0.03162 µM) | relative viability ([2]; first compound 0.1 µM) | relative viability (Cediranib + Trametinib; first compound 0.04 µM) | relative viability (Cediranib + Trametinib; first compound 0.1265 µM) | relative viability (Cediranib + Trametinib; first compound 0.4 µM) | relative viability (Cediranib + Trametinib; first compound 1.265 µM) | relative viability (Cediranib + Trametinib; first compound 4 µM)
HCC-78 | 0.491 | 0.422 | 0.503 | 0.347 | 0.427 | 0.71 | 0.561 | 0.458 | 0.329 | 0.284 | 0.396 | 0.356 | 0.314 | 0.341 | 0.237 | 0.742 | 1.02 | 0.721 | 0.915 | 0.919
HCC-366 | 0.142 | 0.115 | 0.0951 | 0.104 | 0.0283 | 0.92 | 0.906 | 0.382 | 0.232 | 0.133 | 0.759 | 0.515 | 0.607 | 0.544 | 0.0412 | 0.384 | 0.404 | 0.301 | 0.327 | 0.398
HCC-827 | 0.419 | 0.39 | 0.427 | 0.398 | 0.456 |  | 0.471 | 0.404 | 0.269 | 0.939 | 0.913 | 0.893 | 0.895 | 0.973 | 0.798 | 0.6 | 0.791 | 0.529 | 0.539 | 0.497
HOP-62 | 0.445 | 0.406 | 0.386 | 0.32 | 0.231 | 0.572 | 0.388 | 0.15 | 0.172 | 0.14 | 0.905 | 0.958 | 0.971 | 0.972 | 0.676 | 0.442 | 0.404 | 0.346 | 0.387 | 0.42
IA-LM |  |  |  |  |  | 0.415 | 0.313 | 0.156 | 0.162 | 0.169 | 0.845 | 0.899 | 0.768 | 0.384 | 0.0479 |  |  |  |  | 
LC-2-ad | 0.476 | 0.508 | 0.422 | 0.351 | 0.225 | 0.323 | 0.325 | 0.253 | 0.197 | 0.148 | 0.555 | 0.472 | 0.431 | 0.516 | 0.439 | 0.94 | 0.915 | 0.901 | 0.995 | 0.841
LCLC-97TM1 | 0.265 | 0.247 | 0.203 | 0.243 | 0.208 | 0.16 | 0.194 | 0.172 | 0.103 | 0.684 | 0.394 | 0.297 | 0.31 | 0.266 | 0.237 | 0.196 |  | 0.207 | 0.187 | 0.214
LCLC-103H | 0.503 | 0.59 | 0.446 | 0.443 | 0.425 |  |  |  |  |  | 1.09 | 1 | 0.972 | 0.948 | 0.85 | 0.73 | 0.664 | 0.676 | 0.747 | 0.7
NCI-H358 | 0.107 | 0.0894 | 0.095 | 0.0812 | 0.0809 |  |  |  |  |  | 0.832 | 0.678 | 0.467 | 0.253 | 0.0914 | 0.148 | 0.156 | 0.123 | 0.106 | 0.131
NCI-H522 | 0.528 | 0.566 | 0.572 | 0.512 | 0.491 |  |  |  |  |  |  |  |  |  |  | 0.785 | 0.675 | 0.755 | 0.864 | 0.756
NCI-H650 | 0.912 | 0.772 | 0.709 | 0.67 | 0.426 |  |  |  |  |  | 0.77 | 0.714 | 0.73 | 0.604 | 0.344 | 0.96 | 0.85 | 1.06 | 1.09 | 1.03
NCI-H661 | 0.365 | 0.35 | 0.322 | 0.33 | 0.391 |  |  |  |  |  | 1.1 |  | 0.911 | 0.921 | 0.893 | 0.609 | 0.751 | 0.567 | 0.522 | 0.61
NCI-H1299 |  |  |  |  |  | 1.04 | 1.03 | 1.02 | 0.898 | 0.848 | 1.03 | 1.01 | 0.959 | 0.873 | 0.397 |  |  |  |  | 
NCI-H1395 | 0.893 | 0.72 | 0.797 | 0.769 | 0.656 | 0.913 | 0.733 | 0.715 | 0.598 | 0.703 |  |  |  |  |  | 1.05 | 1.04 | 0.999 | 0.954 | 0.904
NCI-H1563 |  |  |  |  |  |  |  |  |  |  | 0.868 | 0.835 | 0.891 | 0.555 | 0.452 |  |  |  |  | 
NCI-H1623 | 0.487 | 0.44 | 0.459 | 0.459 | 0.426 |  |  |  |  |  |  |  |  |  |  |  |  |  |  | 
NCI-H1648 | 0.763 | 0.526 | 0.643 | 0.44 | 0.4 |  |  |  |  |  |  |  |  |  |  | 0.442 | 0.499 | 0.539 | 0.462 | 0.495
NCI-H1703 |  |  |  |  |  | 0.845 | 0.642 | 0.255 | 0.189 | 0.253 | 1.04 | 0.583 | 0.538 | 0.592 | 0.28 |  |  |  |  | 
NCI-H1792 |  |  |  |  |  | 0.6 | 0.672 | 0.625 | 0.454 | 0.304 | 1.04 | 0.973 | 0.985 | 0.959 | 1.03 |  | 0.407 | 0.375 | 0.521 | 0.458
NCI-H1793 | 0.418 | 0.359 | 0.276 | 0.34 | 0.226 | 0.356 | 0.406 | 0.333 | 0.227 | 0.169 |  |  |  |  |  | 0.449 | 0.446 | 0.407 | 0.435 | 0.432
NCI-H2342 | 0.522 | 0.493 | 0.498 | 0.478 | 0.506 |  |  |  |  |  |  |  |  |  |  | 0.841 | 0.897 | 0.849 | 0.877 | 0.812
SW 900 | 0.611 | 0.557 | 0.558 | 0.46 | 0.258 |  |  |  |  |  |  |  |  |  |  | 0.76 | 1.08 | 0.636 | 0.83 | 0.885
